The text below walks through data of BindingDB's records for patent US10487086 (Bristol Myers Squibb, 2019).

This assay concerns the target Coagulation factor XI (Homo sapiens, UniProt P03951). Put plainly: Factor XIa assay. As for the experimental part:
The effectiveness of compounds of the present invention as inhibitors of the coagulation Factors XIa, VIIa, IXa, Xa, XIIa, plasma kallikrein or thrombin, can be determined using a relevant purified serine protease, respectively, and an appropriate synthetic substrate. The rate of hydrolysis of the chromogenic or fluorogenic substrate by the relevant serine protease was measured both in the absence and presence of compounds of the present invention. […] A decrease in the rate of absorbance or fluorescence change in the presence of inhibitor is indicative of enzyme inhibition. Such methods are known to one skilled in the art. […] Determinations were made using purified human Factor XIa at a final concentration of 25-200 pM (Haematologic Technologies) and the synthetic substrate S-2366 (pyroGlu-Pro-Arg-pNA; CHROMOGENIX or AnaSpec) at a concentration of 0.0002-0.001 M.

Coagulation factor XI, sequence (P03951 19-387 limits assumed): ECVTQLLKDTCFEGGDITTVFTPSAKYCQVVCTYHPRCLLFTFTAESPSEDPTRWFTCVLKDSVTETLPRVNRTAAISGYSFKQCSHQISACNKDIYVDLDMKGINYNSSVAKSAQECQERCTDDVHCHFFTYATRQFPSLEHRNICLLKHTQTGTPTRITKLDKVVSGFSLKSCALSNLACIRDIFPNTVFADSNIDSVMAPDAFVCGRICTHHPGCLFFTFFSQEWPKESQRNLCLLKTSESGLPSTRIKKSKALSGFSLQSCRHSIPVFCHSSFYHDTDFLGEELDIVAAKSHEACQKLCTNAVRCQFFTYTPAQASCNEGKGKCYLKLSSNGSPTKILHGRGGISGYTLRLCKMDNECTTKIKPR
Coagulation factor XI, sequence (P03951 388-625 limits assumed): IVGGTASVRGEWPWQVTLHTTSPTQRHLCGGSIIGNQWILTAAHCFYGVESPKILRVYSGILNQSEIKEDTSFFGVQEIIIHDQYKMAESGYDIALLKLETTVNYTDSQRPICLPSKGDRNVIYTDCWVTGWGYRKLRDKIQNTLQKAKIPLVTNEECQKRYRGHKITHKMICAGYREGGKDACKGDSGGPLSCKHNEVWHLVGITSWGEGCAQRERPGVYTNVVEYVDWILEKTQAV

As for `COC(=O)Nc1ccc2c(c1)N[C@@H](C(=O)O)CCCC[C@H](NC(=O)/C=C/c1cc(Cl)ccc1-n1cnnn1)c1nc-2c[nH]1` [US10487086, Example I-84], affinity was put at a Ki of 0.58 µM.
